# Assay results: US10532066B2, “Surfactant lipids, compositions thereof, and uses thereof” (National Jewish Health, priority 2007, dated 2020)
# What was measured:
# MD-2 binding to sTLR4 = biological target: T1, MD-2 binding to sTLR4 (Homo sapiens, UniProt Q9Y6Y9); assay: Phospholipid competition for MD-2-sTLR4 binding
# T1 construct: made in house; host or cells: baculovirus-insect cell expression system
# Experimental: CD14 (2 μg) or sTLR4 (100 ng) in aliquots of 20 μl of buffer B were pipeted onto a 96-well plate, and the solvent evaporated using a warm air dryer. […] The amount of bound LBP or MD-2 was detected using specific antibodies.
# BALB/c mice = assay: Sepsis model: intravenous LPS, intratracheal phospholipids; type: in vivo, mouse; settings: LPS 50 μg i.v., phospholipids 50 μg intratracheal, 3 h
# Experimental: FIG. 10. Anionic phospholipids modulate lung inflammation induced by intravenously administered LPS. Phospholipids were dried under nitrogen and hydrated, and liposomes were formed using a Liposofast™. […] At the same time, LPS (50 μg) in 200 μl of PBS was intravenously administered to mice.
# Next, the effect of phospholipids were examined in a sepsis model in mice. LPS (50 μG/200 μl) was intravenously administered to mice via the tail vein and phospholipids were administered intratracheally at the same time. Three hours after stimulation, BALF was collected (FIG. 10).
# RSV [1] = assay: RSV binding to Hep2 cells (FACScan); type: cell-based, Respiratory Syncytial Virus (RSV); settings: Hep2, multiplicity 50, 37 C 10 min, lipid 200 ug/ml
# Experimental: Suspensions of 3×10^5 Hep2 cells were treated with RSV at a multiplicity of 50, at 37 C for 10 min, in either the absence of lipid, or the presence of 200 ug/ml POPG, or POPC, as indicated. The cells were next shifted to 0 C and washed 3 times with PBS. The cells were then incubated with monoclonal mouse anti-RSV antibody for 1 h at 0 C in PBS containing 5% BSA. The unbound antibody was removed by washing the cells 3 times with PBS, 5% BSA. Next, the cells were incubated with phycoerythrin conjugated rabbit anti-mouse antibody in PBS, 5% BSA for 2 h. Following this incubation the cells were washed 3 times with PBS and fixed overnight with 1% buffered formalin. The fixed cell preparation was washed 3 times with PBS and subjected to FACScan analysis as shown in the left panel of FIG. 38. The summary of the mean fluorescence intensity (MFI) for all conditions is shown in the right panel of FIG. 38.
# influenza-A virus H3N2 = type: cell-based; settings: BEAS2B, multiplicities 1-10, 24, 48 and 72 h, 200 ug/ml POPG added 30 minutes prior
# Toll-like receptor 3 = biological target: T2, Toll-like receptor 3 (Homo sapiens, UniProt O15455); assay: polyIC IL-8 production in NHBE cells; type: cell-based; settings: 24 hr
# T2 construct: endogenous in cells; host or cells: primary normal human bronchial epithelial (NHBE) cells
# Experimental: In this experiment, NHBE cells were stimulated with double stranded RNA (polyIC) and the IL-8 production was measured after an interval of 24 hr. The maximal stimulation by agonist is set at 100% and the antagonism by POPG is expressed as the relative % response. The Controls consist of no treatment, or treatment with POPG, in the absence of agonist as indicated.
# [2] = tested on: Respiratory Syncytial Virus (RSV); assay: Cytopathic effects of RSV upon NHBE cells (photomicrography); type: cell-based
# Experimental: (§1) Monolayers of NHBE cells were infected with RSV at a multiplicity of 3 for 72 h. Infections were performed on cells in either the absence or the presence of POPG (200 ug/ml). The cell monolayers were photographed at a magnification of 200×. Controls consisted of no viral challenge in either the presence or absence of POPG as indicated.
# (§2) Monolayers of NHBE cells were infected with RSV at a multiplicity of 3 for 72 h. Infections were performed on cells in either the absence (b) or the presence (c,f) of POPG (200 ug/ml) and POPC (200 ug/ml) as indicated. Cells were photographed at a magnification of 200×. Controls (a,d,e) consisted of cell layers either not exposed to virus or exposed to POPG, and POPC in the absence of virus as indicated.
# Monolayers of normal human bronchial epithelial cells were infected with RSV at a multiplicity of 0.5-1, in either the presence or absence of 200 ug/ml POPG, or 200 ug/ml POPC, as indicated.
# RSV [3] = assay: RSV binding to solid phase phospholipids (ELISA); set-up: species or system Respiratory Syncytial Virus (RSV); settings: 10 ug lipid per well, varying RSV
# Experimental: Solid phase phospholipids (10 ug) were adsorbed to microtiter wells by evaporation of ethanol solvent. The wells were blocked with albumin and exposed to varying concentrations of RSV as shown in the left panel of FIG. 37. The wells were washed 3 times with phosphate buffered saline and the bound virus was detected by ELISA using polyclonal rabbit anti-RSV.
# [4] = tested on: Respiratory Syncytial Virus (RSV); assay: Cytopathic effects of RSV upon BEAS2B cells (photomicrography); type: cell-based
# Experimental: as §1, with “BEAS2B” for “NHBE”
# as §2, with “BEAS2B” for “NHBE”
# Monolayers of BEAS2B cells were infected with RSV at a multiplicity of 0.5-1, in either the presence or absence of 200 ug/ml POPG, or 200 ug/ml POPC, as indicated.
# Monolayers of BEAS2B cells were either uninfected (CONL) or challenged with RSV at a multiplicity of 0.5/cell (RSV). Where indicated in the FIG. 44, RSV challenged cells were also treated with POPC (200 ug/ml) or POPG (200 ug/ml) liposomes; or POPG nanodiscs (nanoPOPG) at concentrations ranging from 100-300 ug/ml. Selected panels and fields are also shown at 400× magnification in FIG. 45.
# Where indicated in FIG. 46, RSV challenged cells were also treated with nanodisc forms of dipalmitoyl-phosphatidylcholine (nanoDPPC), palmitoyl-oleoyl-phosphatidylcholine (nanoPOPC), or dioleoyl-phosphatidylcholine (nanoDOPC), dipalmitoyl-phosphatidylglycerol (nanoDPPG), dimyristoyl-phosphatidylglycerol (nanoDMPG), or dioleoyl-phosphatidylglycerol (nanoDOPG). At 72 h after infection, the cultures were examined by photomicrography at a magnification of 200×.
# [5] = multiplicity 0.5-1, 72 h, 200 ug/ml
# [6] = multiplicity 3, 72 h, lipid 200 ug/ml
# T1 sequence (Q9Y6Y9 19-160): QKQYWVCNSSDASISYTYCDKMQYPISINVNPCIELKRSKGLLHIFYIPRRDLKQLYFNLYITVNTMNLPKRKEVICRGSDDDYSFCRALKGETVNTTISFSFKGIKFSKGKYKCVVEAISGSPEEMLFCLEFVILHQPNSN
# T2 sequence (O15455 24-904): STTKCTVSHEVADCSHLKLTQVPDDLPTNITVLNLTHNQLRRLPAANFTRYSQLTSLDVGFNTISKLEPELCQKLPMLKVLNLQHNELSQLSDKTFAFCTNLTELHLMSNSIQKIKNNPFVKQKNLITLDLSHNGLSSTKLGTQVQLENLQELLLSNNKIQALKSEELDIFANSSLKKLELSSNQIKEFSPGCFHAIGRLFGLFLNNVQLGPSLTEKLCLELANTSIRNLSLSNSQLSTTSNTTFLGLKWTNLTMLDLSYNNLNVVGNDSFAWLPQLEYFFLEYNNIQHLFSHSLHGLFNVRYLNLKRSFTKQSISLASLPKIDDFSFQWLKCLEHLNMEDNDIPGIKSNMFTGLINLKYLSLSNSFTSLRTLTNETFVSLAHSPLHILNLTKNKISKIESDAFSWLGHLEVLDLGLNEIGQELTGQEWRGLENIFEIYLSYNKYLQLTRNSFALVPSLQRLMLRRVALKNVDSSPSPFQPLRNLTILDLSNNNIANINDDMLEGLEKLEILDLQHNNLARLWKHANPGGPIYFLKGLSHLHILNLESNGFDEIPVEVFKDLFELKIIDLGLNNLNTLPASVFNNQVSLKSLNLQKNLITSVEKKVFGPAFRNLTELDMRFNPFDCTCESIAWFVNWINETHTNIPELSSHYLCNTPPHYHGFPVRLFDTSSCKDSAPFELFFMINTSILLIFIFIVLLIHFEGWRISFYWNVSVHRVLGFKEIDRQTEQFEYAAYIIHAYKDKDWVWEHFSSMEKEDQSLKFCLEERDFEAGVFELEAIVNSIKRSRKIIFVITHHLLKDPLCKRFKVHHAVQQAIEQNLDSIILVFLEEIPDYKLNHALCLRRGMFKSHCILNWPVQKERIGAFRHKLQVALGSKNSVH
compound,measurement,setting,value
"CCCCCCCC/C=C\CCCCCCCC(=O)O[C@H](COC(=O)CCCCCCCCCCCCCCC)COP(=O)(O)OCC(O)CO (some centres unmarked) [POPG, palmitoyl-oleoyl-phosphatidylglycerol]",inhibition of the MD-2/TLR4 interaction,MD-2 binding to sTLR4; lipid competitor up to 200 μg/ml,approximately 75%
same,inhibition of the MD-2/TLR4 interaction,MD-2 binding to sTLR4; low levels of lipid competitor (20 μg/ml),40%
same,KC levels in BALF,BALB/c mice,significantly attenuated
same,MIP-2 levels in BALF,BALB/c mice,significantly attenuated
same,TNF-α secretion in BALF,BALB/c mice,significantly inhibited
same,infiltration of neutrophils in BALF,BALB/c mice,effectively inhibited
same,binding of RSV to epithelial cells,RSV [1],blocks the binding
same,influenza-A induced IL-8 production,influenza-A virus H3N2,suppresses
same,activity of TLR3 (IL-8 production),Toll-like receptor 3,inhibits
same,killing of cells by RSV,[2]; [5],prevents the killing
same,cytopathic effects of RSV,[2]; [6],prevents the cytopathic effects
same,binding of RSV to solid phase phospholipid,RSV [3],binds RSV with high affinity and specificity
same,killing of cells by RSV,[4]; [5],prevents the killing
same,cytopathic effects of RSV,[4]; [6],prevents the cytopathic effects
